Measured values: PMC5908839 (Scientific Reports, 2018)

Molecular target: T1, AioX (Pseudorhizobium banfieldiae, UniProt L0NML6)
T1 construct: 304 amino acid residues; His-tag removed; SeMet-labelled
T1 sequence (L0NML6 27-304): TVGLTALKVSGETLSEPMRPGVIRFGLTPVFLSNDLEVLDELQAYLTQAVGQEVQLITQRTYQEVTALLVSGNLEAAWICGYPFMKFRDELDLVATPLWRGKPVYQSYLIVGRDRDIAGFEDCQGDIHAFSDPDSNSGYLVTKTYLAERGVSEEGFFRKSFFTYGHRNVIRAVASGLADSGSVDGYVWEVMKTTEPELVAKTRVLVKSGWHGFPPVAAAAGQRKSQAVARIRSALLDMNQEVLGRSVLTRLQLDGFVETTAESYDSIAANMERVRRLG
Test: X-ray crystal structure ([…] Å; phosphate from the crystallisation conditions); no binding detected by ITC

Q: How did the Kd turn out when O=P(O)(O)O [phosphate] was run?
A: > 2 mM
